Laboratory results reported in PMC5424463, “A strategy based on nucleotide specificity leads to a subfamily-selective and cell-active inhibitor of N ^6-methyladenosine demethylase FTO” (Chemical Science, 2014).
pIC50: −log10 of the molar value. Several values for one entry are separate records, joined by “and”; a condition that tells them apart may be missing. Identical values can stand only once.

Legend:
[1] = target: T1, ALKBH3 (Homo sapiens, UniProt Q96Q83); experiment: Differential scanning fluorimetry (DSF)-based binding assay, ALKBH3; conditions: DSF, 100 μM compound, 2 μM protein, 50 μM MnCl2; read-out: Tm shift (ALKBH3)
T1 construct: Human ALKBH3 (encompassing residues 1- 286); purchased ProSpec-Tany Technogene Ltd, Israel
T1 sequence (Q96Q83 1-286): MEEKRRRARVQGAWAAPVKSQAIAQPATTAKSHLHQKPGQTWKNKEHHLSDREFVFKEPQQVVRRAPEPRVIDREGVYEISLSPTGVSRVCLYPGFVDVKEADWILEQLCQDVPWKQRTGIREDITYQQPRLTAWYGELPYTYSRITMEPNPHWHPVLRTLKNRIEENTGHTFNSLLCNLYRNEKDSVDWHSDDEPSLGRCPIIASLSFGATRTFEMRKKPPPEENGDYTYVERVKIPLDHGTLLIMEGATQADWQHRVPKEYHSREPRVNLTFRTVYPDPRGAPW
Method: (§1) Superdex-200 column (GE Healthcare) pre-equilibrated with 20 mM HEPES, pH 7.5, 300 mM NaCl, 10% (v/v) glycerol, 0.5 mM TCEP. […]
(§2) Differential scanning fluorimetry (DSF)-based binding assay
DSF-based binding assay was performed using a MiniOpticon™ Real-Time PCR Detection System (Bio-Rad), monitoring protein unfolding using SYPRO orange (Invitrogen) according to the reported method.[16] FAM (492 nm) and ROX (610 nm) filters were used for excitation and emission respectively. Reaction mixes contained 2 μM protein, 50 μM MnCl2, 100 μM compounds, 5x SYPRO orange in a final volume of 50 μl. Reagents were prepared in 50mM HEPES buffer, pH 7.5 except metals, which were dissolved as 100 mM stocks in 20 mM HCl, then further diluted in MilliQ water. Compounds tested were prepared in 100% DMSO and added such that the final concentration of DMSO was not more than 1% v/v of assay […]
mix. Fluorescence readings were taken every 1°C in the range 25-95°C, with the temperature increased linearly by 1°C min -1. The software provided was used to perform global minimum subtraction. The inflection point, representing Tm, was calculated by fitting the Boltzmann equation to the sigmoidal curves obtained; data were processed using GraphPad Prism 6.0™.
The Tm shift caused by the addition of small molecules/ fragments was determined by subtraction of the “reference” Tm (protein incubated with metal and 1% v/v DMSO) from the Tm obtained in the presence of the compound. The assay was performed in triplicate for each inhibitor, with standard deviations typically < 1°C. […]

[2] = target: T2, FTO (Homo sapiens, UniProt Q9C0B1); experiment: Differential scanning fluorimetry (DSF)-based binding assay, FTO; conditions: 100 μM compound, 2 μM protein, 50 μM MnCl2, read-out: Tm shift (FTO)
T2 construct: The human full length FTO construct used in this study; made in house; host or cells: E. coli BL21 (DE3) Rosetta T1R
Method: as §1, §2
DSF-based binding assay was performed using a MiniOpticon™ Real-Time PCR Detection System (Bio-Rad), monitoring protein unfolding using SYPRO orange (Invitrogen) according […]
to the reported method.[16] […]
and emission respectively. Reaction mixes contained 2 μM protein, 50 μM MnCl2, 100 μM […]
Reagents were prepared in 50mM
HEPES buffer, pH 7.5 except metals, which were dissolved as 100 mM stocks in 20 mM HCl, then further diluted in MilliQ water. Compounds tested were prepared in 100% DMSO and added such that the final concentration of DMSO was not more than 1% v/v of assay […]
increased linearly by 1°C min -1. The software provided was used to perform global minimum subtraction. The inflection point, representing Tm, was calculated by fitting the Boltzmann equation to the sigmoidal curves obtained; data were processed using GraphPad Prism 6.0™.
The Tm shift caused by the addition of small molecules/ fragments was determined by subtraction of the “reference” Tm (protein incubated with metal and 1% v/v DMSO) from the Tm obtained in the presence of the compound. […]

[3] = target: T3, ALKBH5 (Homo sapiens, UniProt Q6P6C2); experiment: MALDI-based inhibition assay for ALKBH5, m6A-ssDNA substrate; type: biochemical; conditions: read-out: IC50 (ALKBH5)
T3 construct: pNIC28-Bsa4 ALKBH5 (encompassing residues 66-292); made in house; host or cells: E. coli BL21 (DE3) Rosetta T1R
Method: MALDI-based inhibition assays for FTO and ALKBH5
The assay was modified from previously reported method.[5] An 8-mer m6A-ssDNA substrate with the sequence 5’-TCA(m6A)CAGC-3’ (Yale University, W.M. Keck Foundation Biotechnology Resource Laboratory) was used in this inhibition assay. The assay was performed in triplicate for each inhibitor, in a final reaction volume of 25 µL. Reaction […]
µM), L-ascorbate (2 mM), m6A-ssDNA substrate (100 µM), in 50 mM HEPES buffer, pH 7.5, and inhibitor at various concentrations (final DMSO concentration not more than 1% v/v of assay mix). The reaction was incubated at room temperature for 30 min, before 1:1 quenching with 20% v/v formic acid. 1 uL of the diluted assay mixture was then mixed with 1 uL of 3-hydroxpicolinic acid (3-HPA, the MALDI-TOF-MS matrix, Sigma-Aldrich) and spotted onto the MALDI-TOF-MS plate before analysis. The 3-HPA matrix was prepared by mixing 9 parts of 50 mg/mL 3-hydroxpicolinic acid in 50% MeCN/Milli-Q H2O with 1 part […]
The percentage inhibition was estimated based on the relative intensities of the methylated substrate and the demethylated product observed in the mass spectra. For IC50 determination, eight different concentrations of […]
the variation in percentage demethylation at different inhibitor concentrations, using nonlinear regression, with normalized dose-response fit on GraphPad Prism 6.0™. […]

[4] = target: T1, ALKBH3; experiment: MALDI-based inhibition assay for ALKBH3; type: biochemical; conditions: 8-mer ssDNA substrate
Method: MALDI-based inhibition assays for ALKBH3
An 8-mer m1A-ssDNA substrate with the sequence 5’-CAG(m1A)ATTC-3’ (Yale University, W.M. Keck Foundation Biotechnology Resource Laboratory) was used in this inhibition assay. The assay was performed in triplicate for each inhibitor, in a final reaction volume of 25 µL. Reaction consisted of ALKBH3 (2 µM), 2OG (150 µM), (NH4)2Fe(SO4)2·6H2O (150 µM), L-ascorbate (2 mM), […] (100 µM), in 50 mM HEPES buffer, pH 7.5, and inhibitor at various concentrations (final DMSO concentration not more than 1% v/v of assay mix). The reaction was incubated at room temperature for 30 min, before 1:1 quenching with 20% v/v formic acid. 1 uL of the diluted assay mixture was then mixed with 1 uL of 3-hydroxpicolinic acid (3-HPA, the MALDI-TOF-MS matrix, Sigma-Aldrich) and spotted onto the MALDI-TOF-MS plate before analysis. The 3-HPA matrix was prepared by mixing 9 parts of 50 mg/mL 3-hydroxpicolinic acid in 50% MeCN/Milli-Q H2O with 1 part of 50 mg/mL ammonium citrate in Milli-Q H2O.
The percentage inhibition was estimated based on the relative intensities of the methylated substrate and the demethylated product observed in the mass spectra. […]
Reaction consisted of PHD2 (4 µM), 2OG (150 µM),

T3 sequence (Q6P6C2 66-292): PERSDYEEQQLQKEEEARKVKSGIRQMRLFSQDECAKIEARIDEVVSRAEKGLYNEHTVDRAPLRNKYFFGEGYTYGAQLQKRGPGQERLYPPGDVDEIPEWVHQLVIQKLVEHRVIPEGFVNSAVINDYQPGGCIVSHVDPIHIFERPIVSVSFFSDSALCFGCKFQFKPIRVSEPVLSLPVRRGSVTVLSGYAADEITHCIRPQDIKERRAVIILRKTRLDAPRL
T2 sequence (Q9C0B1 whole entry): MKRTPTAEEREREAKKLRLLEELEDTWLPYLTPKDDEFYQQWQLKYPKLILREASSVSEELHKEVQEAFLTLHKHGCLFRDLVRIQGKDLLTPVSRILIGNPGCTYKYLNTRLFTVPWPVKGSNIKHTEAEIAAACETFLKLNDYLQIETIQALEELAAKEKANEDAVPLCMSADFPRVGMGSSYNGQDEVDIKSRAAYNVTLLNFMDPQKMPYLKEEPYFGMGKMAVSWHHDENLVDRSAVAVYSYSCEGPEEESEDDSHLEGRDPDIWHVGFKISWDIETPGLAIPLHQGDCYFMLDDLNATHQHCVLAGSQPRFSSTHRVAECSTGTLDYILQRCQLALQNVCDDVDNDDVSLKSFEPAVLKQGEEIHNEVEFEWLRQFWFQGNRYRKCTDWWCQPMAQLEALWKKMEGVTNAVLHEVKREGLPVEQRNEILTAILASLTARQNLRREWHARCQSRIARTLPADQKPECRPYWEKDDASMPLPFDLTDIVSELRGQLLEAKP

O=C(O)C=CC(=O)NNC(=O)c1cc(Cc2ccccc2)ccn1 [Compound 22]
ΔTm at 100 µM [1]: 3.5 °C | ΔTm at 100 µM [2]: 3 °C | pIC50 [3]: 3.98 | pIC50 [4]: 4.27

O=C(O)/C=C/C(=O)NNC(=O)c1ccccn1 [Compound 23]
ΔTm at 100 µM [1]: 2 °C | ΔTm at 100 µM [2]: 2.7 °C | pIC50 [3]: 3.80 | pIC50 [4]: 3.78

O=C(O)/C=C/C(=O)NNC(=O)c1cnccc1Cc1ccccc1 [Compound 12]
ΔTm at 100 µM [1]: 3.2 °C | pIC50 [3]: 3.97 | pIC50 [4]: 4.18

O=C(O)/C=C/C(=O)NNC(=O)c1cccnc1 [Compound 21]
ΔTm at 100 µM [1]: 2.5 °C | pIC50 [3]: 3.77 and < 4.00 | pIC50 [4]: 3.94
